Legend:
[1] = target: T1, Angiotensin-converting enzyme (Oryctolagus cuniculus, UniProt P12822); format: tissue-based, Lung;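 further: enzymatic inhibition of angiotensin-converting enzyme measured with FAPGG as the substrate; in other assays of this panel Not Active means under 50% inhibition at 10 µM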
T1 sequence (P12822 whole entry): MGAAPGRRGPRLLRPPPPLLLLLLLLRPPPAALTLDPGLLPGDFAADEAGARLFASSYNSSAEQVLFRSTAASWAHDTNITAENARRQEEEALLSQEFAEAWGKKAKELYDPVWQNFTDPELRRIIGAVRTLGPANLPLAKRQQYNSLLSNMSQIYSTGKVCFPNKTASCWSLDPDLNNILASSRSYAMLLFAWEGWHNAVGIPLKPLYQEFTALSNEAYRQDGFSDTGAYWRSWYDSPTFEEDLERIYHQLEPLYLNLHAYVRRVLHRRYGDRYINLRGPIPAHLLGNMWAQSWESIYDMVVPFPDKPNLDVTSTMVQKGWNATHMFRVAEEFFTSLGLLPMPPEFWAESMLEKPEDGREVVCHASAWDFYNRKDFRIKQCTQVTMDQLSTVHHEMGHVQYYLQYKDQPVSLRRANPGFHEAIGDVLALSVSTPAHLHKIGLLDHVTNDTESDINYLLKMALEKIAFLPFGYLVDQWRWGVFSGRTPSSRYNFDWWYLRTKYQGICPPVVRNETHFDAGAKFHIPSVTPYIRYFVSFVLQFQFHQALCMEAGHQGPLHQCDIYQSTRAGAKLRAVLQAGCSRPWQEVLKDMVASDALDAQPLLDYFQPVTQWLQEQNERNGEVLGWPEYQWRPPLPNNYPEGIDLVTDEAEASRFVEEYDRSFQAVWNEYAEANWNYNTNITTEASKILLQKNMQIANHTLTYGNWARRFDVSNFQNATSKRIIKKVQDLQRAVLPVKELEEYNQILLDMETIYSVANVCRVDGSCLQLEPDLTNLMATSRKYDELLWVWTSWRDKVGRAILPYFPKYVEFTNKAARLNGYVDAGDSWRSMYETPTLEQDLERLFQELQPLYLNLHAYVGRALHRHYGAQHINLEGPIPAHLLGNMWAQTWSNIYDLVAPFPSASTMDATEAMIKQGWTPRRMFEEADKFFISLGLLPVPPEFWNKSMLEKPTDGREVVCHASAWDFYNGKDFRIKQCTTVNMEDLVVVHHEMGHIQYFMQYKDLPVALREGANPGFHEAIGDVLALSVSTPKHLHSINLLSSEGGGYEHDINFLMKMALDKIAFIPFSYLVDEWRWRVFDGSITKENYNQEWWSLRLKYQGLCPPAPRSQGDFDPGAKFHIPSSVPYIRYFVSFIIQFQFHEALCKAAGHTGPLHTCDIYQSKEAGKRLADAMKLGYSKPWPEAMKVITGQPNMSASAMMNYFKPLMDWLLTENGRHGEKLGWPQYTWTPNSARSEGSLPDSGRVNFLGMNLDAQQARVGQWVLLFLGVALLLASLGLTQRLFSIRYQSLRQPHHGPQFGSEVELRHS

[2] = target: T2, Muscarinic acetylcholine receptor M4 (Homo sapiens, UniProt P08173); format: cell membranes, CHO-K1, Membrane; further: in other assays of this panel Not Active means under 50% inhibition at 10 µM
T2 sequence (P08173 whole entry): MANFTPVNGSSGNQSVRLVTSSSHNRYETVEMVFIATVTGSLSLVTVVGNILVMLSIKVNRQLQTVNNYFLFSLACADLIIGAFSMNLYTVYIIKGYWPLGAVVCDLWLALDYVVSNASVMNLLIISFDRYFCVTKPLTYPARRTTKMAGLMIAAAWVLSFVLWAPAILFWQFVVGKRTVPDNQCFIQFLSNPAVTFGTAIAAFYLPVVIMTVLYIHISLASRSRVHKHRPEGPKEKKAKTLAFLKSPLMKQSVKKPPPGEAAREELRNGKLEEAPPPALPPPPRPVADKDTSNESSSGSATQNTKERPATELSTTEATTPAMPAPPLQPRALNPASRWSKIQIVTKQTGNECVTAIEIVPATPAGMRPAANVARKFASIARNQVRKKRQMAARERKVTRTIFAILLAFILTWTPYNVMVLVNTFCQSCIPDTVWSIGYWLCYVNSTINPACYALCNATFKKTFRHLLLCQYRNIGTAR

[3] = target: T3, Type-2 angiotensin II receptor (Homo sapiens, UniProt P50052); experiment: biochemical; format: cell-based, CHO-K1; further: in other assays of this panel Not Active means under 50% inhibition at 10 µM
T3 sequence (P50052 whole entry): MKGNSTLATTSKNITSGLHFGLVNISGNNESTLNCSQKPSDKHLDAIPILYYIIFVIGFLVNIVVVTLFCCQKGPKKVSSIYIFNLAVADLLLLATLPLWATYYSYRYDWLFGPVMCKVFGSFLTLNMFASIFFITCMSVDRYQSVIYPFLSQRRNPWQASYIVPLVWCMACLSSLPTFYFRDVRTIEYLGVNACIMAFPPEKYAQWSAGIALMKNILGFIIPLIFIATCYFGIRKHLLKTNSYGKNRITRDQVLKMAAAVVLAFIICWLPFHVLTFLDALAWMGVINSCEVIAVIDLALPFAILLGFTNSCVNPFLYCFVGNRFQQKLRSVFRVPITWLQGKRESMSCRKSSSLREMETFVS

[4] = target: Mitogen-activated protein kinase 1 (Homo sapiens, UniProt P28482); experiment: DRUGMATRIX: Protein Serine/Threonine Kinase, ERK2 enzyme inhibition (substrate: Myelin Basic Protein); set-up: species or system Escherichia coli; settings: Not Active = under 50% inhibition at 10 µM
[5] = target: T4, C-X-C chemokine receptor type 1 (Homo sapiens, UniProt P25024); further: in other assays of this panel Not Active means under 50% inhibition at 10 µM
T4 sequence (P25024 whole entry): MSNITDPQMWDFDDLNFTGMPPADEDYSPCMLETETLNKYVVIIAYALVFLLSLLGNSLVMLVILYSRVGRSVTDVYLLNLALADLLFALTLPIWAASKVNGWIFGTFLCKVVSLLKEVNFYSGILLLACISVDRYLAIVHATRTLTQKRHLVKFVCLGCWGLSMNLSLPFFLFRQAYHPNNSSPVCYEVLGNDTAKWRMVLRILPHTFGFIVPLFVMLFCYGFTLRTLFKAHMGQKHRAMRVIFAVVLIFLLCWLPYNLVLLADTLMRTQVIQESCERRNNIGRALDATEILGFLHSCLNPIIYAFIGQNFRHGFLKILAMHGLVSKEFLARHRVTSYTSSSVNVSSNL

Mitogen-activated protein kinase 1, sequence (P28482 whole entry): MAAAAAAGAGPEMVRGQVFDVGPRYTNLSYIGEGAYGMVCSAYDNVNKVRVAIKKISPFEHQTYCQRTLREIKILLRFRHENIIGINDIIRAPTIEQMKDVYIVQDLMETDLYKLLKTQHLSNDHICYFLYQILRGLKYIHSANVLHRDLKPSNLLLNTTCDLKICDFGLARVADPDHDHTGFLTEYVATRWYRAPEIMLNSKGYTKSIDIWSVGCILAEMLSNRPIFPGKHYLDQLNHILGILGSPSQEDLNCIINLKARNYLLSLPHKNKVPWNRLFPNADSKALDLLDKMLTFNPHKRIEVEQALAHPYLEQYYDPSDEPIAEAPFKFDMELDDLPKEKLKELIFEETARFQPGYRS

Molecule | IC50 [1] | IC50 ([2]; cho-k1) | IC50 ([3]; cho-k1) | IC50 [4] | IC50 [5] | IC50 ([2]; read-out: IC50) | Ki ([2]; read-out: Ki) | IC50 ([3]; read-out: IC50) | Ki ([3]; read-out: Ki) | Ki [1] | Ki ([2]; cho-k1) | Ki ([3]; cho-k1) | Ki [4] | Ki [5]
CCCCC(=O)N(Cc1ccc(-c2ccccc2-c2nnn[nH]2)cc1)[C@H](C(=O)O)C(C)C | Not Active | Not Active | Not Active | Not Active | Not Active |  |  |  |  |  |  |  |  | 
O=C(O)COc1ccc(C(=O)c2cccs2)c(Cl)c1Cl | Not Active | Not Active | Not Active | Not Active | Not Active |  |  |  |  |  |  |  |  | 
CN1[C@@H]2CC[C@H]1C[C@@H](OC(c1ccccc1)c1ccccc1)C2 [BENZTROPINE] | Not Active |  | Not Active | Not Active | Not Active |  |  |  |  |  |  |  |  | 
C[C@@](Cc1ccc(O)c(O)c1)(NN)C(=O)O.O [CARBIDOPA] | Not Active | Not Active | Not Active | Not Active | Not Active |  |  |  |  |  |  |  |  | 
CN1CCN(C2=Nc3cc(Cl)ccc3Nc3ccccc32)CC1 [CLOZAPINE] | Not Active |  | Not Active | Not Active | Not Active |  |  |  |  |  |  |  |  | 
CC(C)NC[C@@H](O)COc1cccc2ccccc12 [DEXPROPRANOLOL] | Not Active | Not Active | Not Active | Not Active | Not Active |  |  |  |  |  |  |  |  | 
CC(C)NC[C@H](O)COc1cccc2ccccc12 [LEVOPROPRANOLOL] | Not Active | Not Active | Not Active | Not Active | Not Active |  |  |  |  |  |  |  |  | 
O=C(O)CCCCC1CCSS1 (stereo not drawn) [LIPOIC ACID, ALPHA] | Not Active | Not Active | Not Active | Not Active | Not Active |  |  |  |  |  |  |  |  | 
CN(C)C(=O)C(CCN1CCC(O)(c2ccc(Cl)cc2)CC1)(c1ccccc1)c1ccccc1 [LOPERAMIDE] | Not Active | Not Active | Not Active | Not Active | Not Active |  |  |  |  |  |  |  |  | 
Clc1ccc(COC(Cn2ccnc2)c2ccc(Cl)cc2Cl)c(Cl)c1 (centres undefined) [MICONAZOLE] | Not Active |  |  | Not Active | Not Active | 3.2 µM | 0.446 µM | 24 µM | 7.78 µM |  |  |  |  | 
Oc1ccc2c3c1O[C@H]1[C@@H](O)CC[C@@]4(O)[C@@H](C2)N(CC2CCC2)CC[C@]314 [NALBUPHINE] | Not Active | Not Active | Not Active | Not Active | Not Active |  |  |  |  |  |  |  |  | 
C[C@]12C=CC(=O)C=C1CC[C@@H]1[C@@H]2C(=O)C[C@@]2(C)[C@H]1CC[C@]2(O)C(=O)CO [PREDNISONE] | Not Active | Not Active | Not Active | Not Active | Not Active |  |  |  |  |  |  |  |  | 
OCCOCCN1CCN(C2=Nc3ccccc3Sc3ccccc32)CC1 [QUETIAPINE] | Not Active |  | Not Active | Not Active | Not Active |  |  |  |  |  |  |  |  | 
COC(=O)[C@H]1[C@H]2C[C@@H]3c4[nH]c5cc(OC)ccc5c4CCN3C[C@H]2C[C@@H](OC(=O)c2cc(OC)c(OC)c(OC)c2)[C@@H]1OC [RESERPINE] | Not Active | Not Active | Not Active | Not Active | Not Active |  |  |  |  |  |  |  |  | 
O=C(O)c1ccccc1O [SALICYLIC ACID] | Not Active | Not Active | Not Active | Not Active | Not Active |  |  |  |  |  |  |  |  | 
C[S+]([O-])c1ccc(-c2nc(-c3ccncc3)c(-c3ccc(F)cc3)[nH]2)cc1 (centres undefined) [SB-203580] | Not Active | Not Active | Not Active |  | Not Active |  |  |  |  |  |  |  |  | 
CC1CCC(NC(=O)N(CCCl)N=O)CC1 (centres undefined) [SEMUSTINE] | Not Active | Not Active | Not Active | Not Active | Not Active |  |  |  |  |  |  |  |  | 
O=C1C[C@@H]2OCC=C3CN4CC[C@]56c7ccccc7N1[C@H]5[C@H]2[C@H]3C[C@H]46 [STRYCHNINE] | Not Active | Not Active | Not Active | Not Active | Not Active |  |  |  |  |  |  |  |  | 
C[N+](C)(C)CCOC(=O)CCC(=O)OCC[N+](C)(C)C.[Cl-].[Cl-] [SUCCINYLCHOLINE CHLORIDE] | Not Active | Not Active | Not Active | Not Active | Not Active |  |  |  |  |  |  |  |  | 
Nc1ccc(S(=O)(=O)NC(=O)c2ccccc2)cc1 [SULFABENZAMIDE] | Not Active | Not Active | Not Active | Not Active | Not Active |  |  |  |  |  |  |  |  | 
CCCCCCCCNC(C)C(O)c1ccc(SC(C)C)cc1 (centres undefined) [SULOCTIDIL] | Not Active |  | Not Active | Not Active | Not Active | 4.56 µM | 0.636 µM |  |  |  |  |  |  | 
O=c1[nH]c(=O)n(C2CCCO2)cc1F (centres undefined) [TEGAFUR] | Not Active | Not Active | Not Active | Not Active | Not Active |  |  |  |  |  |  |  |  | 
CC(=N)S [THIOACETAMIDE] | Not Active | Not Active | Not Active | Not Active | Not Active |  |  |  |  |  |  |  |  | 
Cc1ccc(C(=O)c2ccc(CC(=O)O)n2C)cc1 [TOLMETIN] | Not Active | Not Active | Not Active | Not Active | Not Active |  |  |  |  |  |  |  |  | 
CC(=O)OCC(COC(C)=O)OC(C)=O [TRIACETIN] | Not Active | Not Active | Not Active | Not Active | Not Active |  |  |  |  |  |  |  |  | 
CN1CCN(CCCN2c3ccccc3Sc3ccc(C(F)(F)F)cc32)CC1 [TRIFLUOPERAZINE] | Not Active | Not Active | Not Active | Not Active | Not Active |  |  |  |  |  |  |  |  | 
TRANSPLATIN | Not Active | Not Active | Not Active | Not Active | Not Active |  |  |  |  | Not Active | Not Active | Not Active | Not Active | Not Active
ZIRCONIUM(IV) CHLORIDE | Not Active | Not Active | Not Active | Not Active | Not Active |  |  |  |  | Not Active | Not Active | Not Active | Not Active | Not Active
